Results reported in US20240043404A1 (AbbVie Inc., priority 2009, published 2024).

The molecules below were run on RS4;11 cells (assay: RS4;11 cell viability assay (CellTiter Glo)). Conditions: Homo sapiens, RS4-11, 48 h, 50,000 cells per well, 10% human serum, 48 hours; read-out: RS4; 11 EC50 Values.
Assay type: cell-based, human
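Also: acute lymphoblastic leukemia line RS4,11, EC50 derived from percentage of viable cells after treatment relative to untreated controls, cell killing taken as a measure of Bcl-2 inhibition.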
Procedure: The acute lymphoblastic leukemia (ALL) cell line RS4;11 was used as the primary human cell line to assess the cellular activity of Bcl-2 selective agents in vitro and their efficacy in vivo.
Cell cytotoxicity EC50 values were assessed using CellTiter Glo (Promega) according to the manufacturer's recommendations. The EC50 values were determined as a percentage of viable cells following treatment compared to the untreated control cells.

How did the EC50 turn out when `CC1(C)CCC(CN2CCN(c3ccc(C(=O)NS(=O)(=O)c4cnc(OCC5(F)CCN(CC(F)F)CC5)c(Cl)c4)c(Oc4cnc5[nH]ccc5c4)c3)CC2)=C(c2ccc(Cl)cc2)C1` [Example 285, N-[(5-chloro-6-{[1-(2,2-difluoroethyl)-4-fluoropiperidin-4-yl]methoxy}pyridin-3-yl)sulfonyl]-4-(4-{[2-(4-chlorophenyl)-4,4-dimethylcyclohex-1-en-1-yl]methyl}piperazin-1-yl)-2-(1H-pyrrolo[2,3-b]pyridin-5-yloxy)benzamide] was run?
The EC50 was 57.4 nM.

How did the EC50 turn out when `CN(C)CC(=O)N1CCC(COc2ncc(S(=O)(=O)NC(=O)c3ccc(N4CCN(CC5=C(c6ccc(Cl)cc6)CC(C)(C)CC5)CC4)cc3Oc3cnc4[nH]ccc4c3)cc2Cl)CC1` [Example 260, N-[(5-chloro-6-{[1-(N,N-dimethylglycyl)piperidin-4-yl]methoxy}pyridin-3-yl)sulfonyl]-4-(4-{[2-(4-chlorophenyl)-4,4-dimethylcyclohex-1-en-1-yl]methyl}piperazin-1-yl)-2-(1H-pyrrolo[2,3-b]pyridin-5-yloxy)benzamide] was run?
Its EC50 is 5.43 nM.

Which EC50 does the source give for `CN(C)CC(=O)N1CCC(F)(COc2ncc(S(=O)(=O)NC(=O)c3ccc(N4CCN(CC5=C(c6ccc(Cl)cc6)CC(C)(C)CC5)CC4)cc3Oc3cnc4[nH]ccc4c3)cc2Cl)CC1` [Example 270, N-[(5-chloro-6-{[1-(N,N-dimethylglycyl)-4-fluoropiperidin-4-yl]methoxy}pyridin-3-yl)sulfonyl]-4-(4-{[2-(4-chlorophenyl)-4,4-dimethylcyclohex-1-en-1-yl]methyl}piperazin-1-yl)-2-(1H-pyrrolo[2,3-b]pyridin-5-yloxy)benzamide] here?
The EC50 was 2.52 nM.

`CC1(C)CCC(CN2CCN(c3ccc(C(=O)NS(=O)(=O)c4ccc(NC5CCN(C6CCC6)CC5)c([N+](=O)[O-])c4)c(Oc4cnc5[nH]ccc5c4)c3)CC2)=C(c2ccc(Cl)cc2)C1` [Example 140, 4-(4-{[2-(4-chlorophenyl)-4,4-dimethylcyclohex-1-en-1-yl]methyl}piperazin-1-yl)-N-({4-[(1-cyclobutylpiperidin-4-yl)amino]-3-nitrophenyl}sulfonyl)-2-(1H-pyrrolo[2,3-b]pyridin-5-yloxy)benzamide] was tested. Which EC50 did it give?
Its EC50 is 12.8 nM.

`CCN(C)C(=O)N1CCOC(CNc2ccc(S(=O)(=O)NC(=O)c3ccc(N4CCN(CC5=C(c6ccc(Cl)cc6)CC(C)(C)CC5)CC4)cc3Oc3cnc4[nH]ccc4c3)cc2Cl)C1` (centres unmarked) [Example 333, 2-{[(2-chloro-4-{[4-(4-{[2-(4-chlorophenyl)-4,4-dimethylcyclohex-1-en-1-yl]methyl}piperazin-1-yl)-2-(1H-pyrrolo[2,3-b]pyridin-5-yloxy)benzoyl]sulfamoyl}phenyl)amino]methyl}-N-ethyl-N-methylmorpholine-4-carboxamide] was tested. Which EC50 did it give?
Its EC50 is 463 nM.

For `COCCN1CCCC(CNc2ccc(S(=O)(=O)NC(=O)c3ccc(N4CCN(CC5=C(c6ccc(Cl)cc6)CC(C)(C)CC5)CC4)cc3Oc3cnc4[nH]ccc4c3)cc2[N+](=O)[O-])C1` (centres unmarked) [Example 228, 4-(4-{[2-(4-chlorophenyl)-4,4-dimethylcyclohex-1-en-1-yl]methyl}piperazin-1-yl)-N-{[4-({[1-(2-methoxyethyl)piperidin-3-yl]methyl}amino)-3-nitrophenyl]sulfonyl}-2-(1H-pyrrolo[2,3-b]pyridin-5-yloxy)benzamide], which EC50 is on record?
Its EC50 is > 1000 nM.

How did the EC50 turn out when `COCCNc1ccc(S(=O)(=O)NC(=O)c2ccc(N3CCN(CC4=C(c5ccc(Cl)cc5)CC(C)(C)CC4)CC3)cc2Oc2ccc3[nH]ccc3c2)cc1S(=O)(=O)C(F)(F)F` [Example 93, 4-(4-{[2-(4-chlorophenyl)-4,4-dimethylcyclohex-1-en-1-yl]methyl}piperazin-1-yl)-2-(1H-indol-5-yloxy)-N-({4-[(2-methoxyethyl)amino]-3-[(trifluoromethyl)sulfonyl]phenyl}sulfonyl)benzamide] was run?
The EC50 was > 5000 nM.

Same assay, conditions: Homo sapiens, RS4-11, Table 5, direct comparison Z=N with corresponding analogs Z=C; read-out: RS4; 11 EC50

`COCCNc1ccc(S(=O)(=O)NC(=O)c2ccc(N3CCN(CC4=C(c5ccc(Cl)cc5)CC(C)(C)CC4)CC3)cc2Oc2ccc3[nH]ccc3c2)cc1S(=O)(=O)C(F)(F)F` [Example 93, 4-(4-{[2-(4-chlorophenyl)-4,4-dimethylcyclohex-1-en-1-yl]methyl}piperazin-1-yl)-2-(1H-indol-5-yloxy)-N-({4-[(2-methoxyethyl)amino]-3-[(trifluoromethyl)sulfonyl]phenyl}sulfonyl)benzamide] was tested. Which EC50 did it give?
The EC50 was > 5000 nM.
